Laboratory results: patent publication US20220040129A1, “TREATMENT OF HYPERAMMONEMIA IN PATIENTS WITH RENAL INSUFFICIENCY” (RECORDATI S.p.A., priority 2019, published 2022)
Where two headings read alike, the source gives them in different places.

Experiments:
Assay type in all cases: in vivo, human
[1] = CARIV-A-001 Part A: single ascending IV doses over 20 minutes in healthy subjects; details: both sexes, human, plasma, iv
Experimental: This study was conducted in healthy male or female volunteers, at a single site to assess the safety and PK profile of an IV formulation of Carbaglu and to determine the absolute bioavailability of the current marketed oral formulation of Carbaglu.
The levels of CGA in plasma and urine were analysed using a fully validated method, which included LC-MS/MS analysis. The PK data were analysed based on a non-compartmental model. A model-based approach was implemented for the characterization of the PK properties of the IV formulation in order to estimate the level of PK exposure after different doses administered with different duration of infusion. […] The PK parameters were determined using SAS (version 9.3), and modelling of the PK data was performed using NONMEM (version 7.3, ICON Solutions). PART A: Mono-Centre, Randomized, Successive Groups, Double-Blind, Placebo-Controlled Study in Healthy Male and Female Subjects
Each cohort included a minimum of 3 and maximum of 5 subjects of each of the two genders.
Three loading doses of CGA over 20 minutes were tested by IV administration, 3.5 mg/kg, 5.0 mg/kg and 7.5 mg/kg. For each of these three doses, 6 subjects were administered CGA and 2 received the placebo.
Plasma concentrations of CGA were measured at 18 timepoints, including a sample preceding the start of the administration, and then between 10 minutes and 48 hours following the initiation of the IV infusion.
The PK analysis of Carbaglu was conducted by using standard non-compartmental approach.

plasma NH3 = experiment: Retrospective review of PA, MMA, IVA decompensation episodes: plasma NH3 and clinical findings
Experimental: […] […] Plasma ammonia (NH3) levels were measured up to a maximum of 15 days from the start of treatment. […] Concomitant standard of care therapies included carnitine, arginine, hydroxocobalamin, biotin, thiamine, riboflavin and glucose.

[2] = PK study comparing oral to IV CARBAGLU in 36 healthy volunteers

## NC(=O)N[C@@H](CCC(=O)O)C(=O)O [carglumic acid, N-carbamoyl-L-glutamic acid]
[1]; 5 mg/kg, IV over 20 minutes, 5.0 mg/kg, read-out: AUC24h, Range
  AUC(0-t): 11100 to 19300 ng·h/mL
[1]; 5 mg/kg, IV over 20 minutes, 5.0 mg/kg, read-out: AUCinf, Mean
  AUC(0-inf): 16100 ng·h/mL
[1]; 5 mg/kg, IV over 20 minutes, 5.0 mg/kg, read-out: AUCinf, Median
  AUC(0-inf): 16600 ng·h/mL
[1]; 5 mg/kg, IV over 20 minutes, 5.0 mg/kg, read-out: AUCinf, Range
  AUC(0-inf): 12300 to 20000 ng·h/mL
[1]; 5 mg/kg, IV over 20 minutes, 5.0 mg/kg, read-out: AUClast-timepoint, Mean
  AUC(0-t): 15300 ng·h/mL
[1]; 5 mg/kg, IV over 20 minutes, 5.0 mg/kg, read-out: AUClast-timepoint, Median
  AUC(0-t): 15600 ng·h/mL
[1]; 5 mg/kg, IV over 20 minutes, 5.0 mg/kg, read-out: AUClast-timepoint, Range
  AUC(0-t): 11500 to 19300 ng·h/mL
[1]; 5 mg/kg, IV over 20 minutes, 5.0 mg/kg, read-out: Clearance (Cl), Mean
  clearance: 5.33 mL/min/kg
[1]; 5 mg/kg, IV over 20 minutes, 5.0 mg/kg, read-out: Clearance (Cl), Median
  clearance: 5 mL/min/kg
[1]; 5 mg/kg, IV over 20 minutes, 5.0 mg/kg, read-out: Clearance (Cl), Range
  clearance: 4.17 to 6.83 mL/min/kg
[1]; 5 mg/kg, IV over 20 minutes, 5.0 mg/kg, read-out: Cmax, Mean
  Cmax: 15000 ng/mL
[1]; 5 mg/kg, IV over 20 minutes, 5.0 mg/kg, read-out: Cmax, Median
  Cmax: 15600 ng/mL
[1]; 5 mg/kg, IV over 20 minutes, 5.0 mg/kg, read-out: Cmax, Range
  Cmax: 8420 to 19100 ng/mL
[1]; 5 mg/kg, IV over 20 minutes, 5.0 mg/kg, read-out: T1/2, Mean
  half-life: 21.6 h
[1]; 5 mg/kg, IV over 20 minutes, 5.0 mg/kg, read-out: T1/2, Median
  half-life: 21.4 h
[1]; 5 mg/kg, IV over 20 minutes, 5.0 mg/kg, read-out: T1/2, Range
  half-life: 12.8 to 29.3 h
[1]; 5 mg/kg, IV over 20 minutes, 5.0 mg/kg, read-out: Volume of Distribution (Vd), Mean
  Vd: 9.94 L/kg
[1]; 5 mg/kg, IV over 20 minutes, 5.0 mg/kg, read-out: Volume of Distribution (Vd), Median
  Vd: 10.2 L/kg
[1]; 5 mg/kg, IV over 20 minutes, 5.0 mg/kg, read-out: Volume of Distribution (Vd), Range
  Vd: 4.62 to 12.8 L/kg
[1]; 7.5 mg/kg, IV over 20 minutes, 7.5 mg/kg, read-out: AUC24h, Mean
  AUC(0-t): 21600 ng·h/mL
[1]; 7.5 mg/kg, IV over 20 minutes, 7.5 mg/kg, read-out: AUC24h, Median
  AUC(0-t): 20700 ng·h/mL
[1]; 7.5 mg/kg, IV over 20 minutes, 7.5 mg/kg, read-out: AUC24h, Range
  AUC(0-t): 19200 to 26900 ng·h/mL
[1]; 7.5 mg/kg, IV over 20 minutes, 7.5 mg/kg, read-out: AUCinf, Mean
  AUC(0-inf): 23900 ng·h/mL
[1]; 7.5 mg/kg, IV over 20 minutes, 7.5 mg/kg, read-out: AUCinf, Median
  AUC(0-inf): 23200 ng·h/mL
[1]; 7.5 mg/kg, IV over 20 minutes, 7.5 mg/kg, read-out: AUCinf, Range
  AUC(0-inf): 20200 to 29100 ng·h/mL
[1]; 7.5 mg/kg, IV over 20 minutes, 7.5 mg/kg, read-out: AUClast-timepoint, Mean
  AUC(0-t): 22600 ng·h/mL
[1]; 7.5 mg/kg, IV over 20 minutes, 7.5 mg/kg, read-out: AUClast-timepoint, Median
  AUC(0-t): 22100 ng·h/mL
[1]; 7.5 mg/kg, IV over 20 minutes, 7.5 mg/kg, read-out: AUClast-timepoint, Range
  AUC(0-t): 19600 to 27800 ng·h/mL
[1]; 7.5 mg/kg, IV over 20 minutes, 7.5 mg/kg, read-out: Clearance (Cl), Mean
  clearance: 5.33 mL/min/kg
[1]; 7.5 mg/kg, IV over 20 minutes, 7.5 mg/kg, read-out: Clearance (Cl), Median
  clearance: 5.33 mL/min/kg
[1]; 7.5 mg/kg, IV over 20 minutes, 7.5 mg/kg, read-out: Clearance (Cl), Range
  clearance: 4.33 to 6.17 mL/min/kg
[1]; 7.5 mg/kg, IV over 20 minutes, 7.5 mg/kg, read-out: Cmax, Mean
  Cmax: 22900 ng/mL
[1]; 7.5 mg/kg, IV over 20 minutes, 7.5 mg/kg, read-out: Cmax, Median
  Cmax: 23200 ng/mL
[1]; 7.5 mg/kg, IV over 20 minutes, 7.5 mg/kg, read-out: T1/2, Mean
  half-life: 24.8 h
[1]; 7.5 mg/kg, IV over 20 minutes, 7.5 mg/kg, read-out: T1/2, Median
  half-life: 25.5 h
[1]; 7.5 mg/kg, IV over 20 minutes, 7.5 mg/kg, read-out: T1/2, Range
  half-life: 15.3 to 35.4 h
[1]; 7.5 mg/kg, IV over 20 minutes, 7.5 mg/kg, read-out: Volume of Distribution (Vd), Mean
  Vd: 11.2 L/kg
[1]; 7.5 mg/kg, IV over 20 minutes, 7.5 mg/kg, read-out: Volume of Distribution (Vd), Median
  Vd: 10.8 L/kg
[1]; 7.5 mg/kg, IV over 20 minutes, 7.5 mg/kg, read-out: Volume of Distribution (Vd), Range
  Vd: 7.02 to 17.5 L/kg
[1]; IV over 20 minutes, across dose groups 3.5-7.5 mg/kg, read-out: Half-life, mean value (converted)
  half-life: 22 h
[1]; IV over 20 minutes, each cohort, read-out: Half-life, range of cohort means
  half-life: 20.6 to 24.8 h
[1]; IV over 20 minutes, each cohort, read-out: Volume of distribution (Vd), range of cohort means
  Vd: 9.3 to 11.2 L/kg
[1]; IV over 20 minutes, in each cohort, read-out: Total body clearance, mean value (converted)
  clearance: 5.33 mL/min/kg
[1]; IV over 20 minutes, read-out: Vss, range of cohort means
  Vd: 2.21 to 2.39 L/kg
[1]; after IV administration, overall analysis on the three groups, read-out: Volume of distribution, median
  Vd: 10.2 L/kg
[1]; after IV administration, read-out: Terminal half-life, median (converted)
  half-life: ~22 h
[1]; after IV administration, read-out: Terminal half-life, range
  half-life: 7 to 36 h
[1]; after IV administration, read-out: Total clearance, median
  clearance: 354 mL/min
[1]; after IV administration, read-out: Total clearance, range
  clearance: 241 to 502 mL/min
Plasma NH3; 36-48 hours from treatment initiation
  Mean reduction in plasma NH3 levels from baseline: −63%
Plasma NH3; 51 patients (27 PA, 24 MMA)
  Differences in plasma ammonia level reduction between pediatric and adult patients with PA or MMA: no apparent differences
Plasma NH3; clinical, laboratory, neurological, psychiatric, respiratory findings and feeding difficulties
  Median change in the number of clinical findings from baseline to endpoint: −4.0
Plasma NH3; human, in vivo
  Normalization of the neurological findings: 50 % of episodes
[2]; after IV administration
  Mean fraction of the dose excreted in the urine: 90%
[2]; after oral administration
  Mean fraction of the dose excreted in the urine: 7.5%
[2]; human, in vivo, oral vs IV, 36 healthy volunteers, read-out: Mean absolute bioavailability
  bioavailability: 9.87%
